Results: patent publication US20250002473A1, “QUINOXALINE DERIVED SULFONAMIDES WITH EGFR DEGRADATION ACTIVITIES AND THEIR USES THEREOF” (Accutar Biotechnology Inc., priority 2023, published 2025)

Legend:
Type in all cases: cell-based
[1] = target: T1, A431 (EGFR_WT) (Homo sapiens, UniProt P00533); test: EGFR degradation assay (western blot), A431 cells; conditions: compounds 24 h, western blot, read-out: A431 DC50
T1 construct: endogenous in cells; host or cells: A431, NCI-H2073, NCI-H292
Protocol: (§1) A431 (EGFR_WT), NCl-H2073 (EGFR_WT), NCl-H292 (EGFR_WT), BaF3_YVAM (Her2_A775insYVAM), BaF3_SVD (EGFR_D770insSVD), BaF3_ASV (EGFR_A776inASV), or BaF3_DTC (EGFR_Exon19del/T790M/C797S) cells were seeded in a 24-well plate at a density of 4×10^5 cells per well for EGFR WT cells and 8× cells per well for EGFR or Her2 mutant cells, and the plates were incubated overnight. The cells were treated with the desired compounds for 24 h. The culture medium was removed, and 100 μL of RIPA buffer (Beyotime, P0013B) containing 1% Protease Inhibitor Cocktail (Bimake, B14001), 1% Phosphatase Inhibitor Cocktail 2 (Sigma, P5726), and 1% Phosphatase Inhibitor Cocktail 3 (Sigma, P0044) were added to lyse the cells. Then, the cell lysates were transferred to 1.5 mL microcentrifuge tubes and centrifuged at 12,000 rpm and 4° C. for 30 min. The supernatants were transferred into new tubes, and the protein concentration was determined using the BCA protein quantification method. All samples were diluted to the same concentration using RIPA buffer, loading buffer was added, samples were denatured, and 15 μg of protein per lane was loaded onto a SurePAGE 4-20% Bis-Tris gel. Samples were separated via electrophoresis in MOPS running buffer at 180 V for 100 min. Then, proteins were transferred onto PVDF membranes using the MiniBlot™ Electrophoretic Transfer Cell Device (Beyotime, E6050). The membrane was blocked using block buffer (LI-COR 927-60001) to prevent non-specific binding. The membrane was incubated with primary antibodies (1:500 dilution, EGFR-CST4405, 1:2000 dilution, Tubulin-ABclonal #AC021) at 4° C. overnight. The membrane was washed three times with 1× TBST buffer for 15 min each. The membrane was incubated with secondary antibodies IRDye 680RD Goat anti-Rabbit IgG Secondary Antibody (1:2000 dilution, LI-COR 926-68071) and IRDye 800CW Goat anti-Mouse IgG Secondary Antibody (1:2000 dilution, LI-COR 926-32210). Finally, the membrane was washed again with 1× TBST buffer 3 times. Fluorescence was detected using the Odyssey CLx Imaging System, and the data were analyzed with Empiria Studio Software and GraphPad Prism 9. Table 4 and Table 5 list the degradation results, where the degradation potency is represented by DC50, the concentration of compounds to cause the degradation of 50% of the corresponding proteins. FIGS. 45-49 show western blots illustrating the EGFR degradative activity of exemplary Compound of the present disclosure and a comparator Compound A in different cell lines 24 h after administration. The Compound referred herein as Compound A is disclosed in WO 2022/171123 A1 (see, compound 133, page 46; published Aug. 18, 2022). WO 2022/171123 A1 discloses phosphine oxide derived molecules with EGFR degradation activity.

[2] = test system: BaF3_DTC (EGFR_Exon19del/T790M/C797S); test: EGFR degradation assay (western blot), BaF3_DTC cells; conditions: BaF3_DTC cells (EGFR_Exon19del/T790M/C797S), compounds 24 h, western blot; read-out: BaF3_DTC DC50
Protocol: as §1

[3] = target: T2, BaF3_ASV (EGFR_A776inASV) (Homo sapiens, UniProt P00533, DUP767-769); test: EGFR degradation assay (western blot), BaF3_ASV cells; conditions: BaF3_ASV cells, compounds 24 h, western blot; read-out: BaF3_ASV DC50
T2 construct: expressed in transfected cells; host or cells: Ba/F3 (engineered)
T2 sequence (P00533 with tags, fused parts or gaps DUP767-769): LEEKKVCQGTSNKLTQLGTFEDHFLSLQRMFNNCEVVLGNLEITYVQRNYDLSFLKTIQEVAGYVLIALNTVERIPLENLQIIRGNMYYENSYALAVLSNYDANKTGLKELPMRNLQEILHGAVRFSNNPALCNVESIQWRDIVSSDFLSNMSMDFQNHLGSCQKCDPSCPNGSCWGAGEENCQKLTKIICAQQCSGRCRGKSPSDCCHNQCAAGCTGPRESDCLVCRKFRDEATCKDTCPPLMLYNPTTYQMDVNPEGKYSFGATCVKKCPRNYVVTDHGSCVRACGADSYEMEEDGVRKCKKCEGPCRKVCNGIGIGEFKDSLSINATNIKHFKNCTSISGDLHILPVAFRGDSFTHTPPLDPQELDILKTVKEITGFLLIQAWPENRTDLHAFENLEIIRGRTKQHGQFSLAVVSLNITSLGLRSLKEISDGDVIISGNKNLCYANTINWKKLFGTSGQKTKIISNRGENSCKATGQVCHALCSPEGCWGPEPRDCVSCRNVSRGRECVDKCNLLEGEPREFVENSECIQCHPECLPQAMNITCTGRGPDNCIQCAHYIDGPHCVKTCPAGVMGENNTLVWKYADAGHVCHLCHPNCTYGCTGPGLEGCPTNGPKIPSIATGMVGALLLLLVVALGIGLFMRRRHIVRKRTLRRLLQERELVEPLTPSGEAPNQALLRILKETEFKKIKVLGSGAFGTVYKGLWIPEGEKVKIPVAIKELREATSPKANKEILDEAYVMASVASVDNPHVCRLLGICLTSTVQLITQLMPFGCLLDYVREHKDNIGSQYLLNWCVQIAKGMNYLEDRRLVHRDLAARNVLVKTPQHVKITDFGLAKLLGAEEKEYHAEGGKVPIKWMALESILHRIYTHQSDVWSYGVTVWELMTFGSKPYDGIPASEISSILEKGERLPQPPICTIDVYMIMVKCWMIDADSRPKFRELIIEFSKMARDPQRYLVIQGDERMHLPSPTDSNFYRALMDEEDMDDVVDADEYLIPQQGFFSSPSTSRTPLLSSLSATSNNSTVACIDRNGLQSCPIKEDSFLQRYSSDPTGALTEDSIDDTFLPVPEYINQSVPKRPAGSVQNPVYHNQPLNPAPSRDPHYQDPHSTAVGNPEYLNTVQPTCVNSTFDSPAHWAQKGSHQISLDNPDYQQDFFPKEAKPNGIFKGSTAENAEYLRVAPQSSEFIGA
Protocol: as §1

[4] = test system: A431; test: Cell growth inhibition assay (CellTiter-Glo), A431; conditions: Homo sapiens, A-431, 72 h, Table 6; A431 cells, three days, CellTiter-Glo; read-out: A431 GI50
Protocol: (§2) Cells were seeded in a 96-well plate (Corning 3610) with 90 μL of culture medium per well, and plates were incubated at 37° C. overnight. A 1,000× DMSO stock solution of the desired compound was prepared the following day. A compound dilution plate was prepared by diluting the stock solution 1:100 in the corresponding cell culture medium, 10 μL of the diluted compound solution was added to each 96-well plate well containing the seeded cells. […] The content of the wells was mixed by shaking continuously for 10 min, and luminescence was measured using Envision (PerkinElmer). The data were analyzed with GraphPad Prism 9 (see FIG. 50).
(§3) Table 6, Table 7, and Table 8 list the cell growth inhibition results, where Gls0 represents the compound concentration to cause 50% cell growth inhibition in comparison with DMSO.

[5] = test system: BaF3_DTC; test: Cell growth inhibition assay (CellTiter-Glo), BaF3_DTC; conditions: 72 h; Table 6; BaF3_DTC cells, three days, CellTiter-Glo; read-out: BaF3_DTC GI50
Protocol: as §2, §3

[6] = test system: BaF3_ASV; test: Cell growth inhibition assay (CellTiter-Glo), BaF3_ASV; conditions: 72 h; Table 6; BaF3_ASV cells, three days, CellTiter-Glo; read-out: BaF3_ASV GI50
Protocol: as §2, §3

T1 sequence (P00533 25-1210): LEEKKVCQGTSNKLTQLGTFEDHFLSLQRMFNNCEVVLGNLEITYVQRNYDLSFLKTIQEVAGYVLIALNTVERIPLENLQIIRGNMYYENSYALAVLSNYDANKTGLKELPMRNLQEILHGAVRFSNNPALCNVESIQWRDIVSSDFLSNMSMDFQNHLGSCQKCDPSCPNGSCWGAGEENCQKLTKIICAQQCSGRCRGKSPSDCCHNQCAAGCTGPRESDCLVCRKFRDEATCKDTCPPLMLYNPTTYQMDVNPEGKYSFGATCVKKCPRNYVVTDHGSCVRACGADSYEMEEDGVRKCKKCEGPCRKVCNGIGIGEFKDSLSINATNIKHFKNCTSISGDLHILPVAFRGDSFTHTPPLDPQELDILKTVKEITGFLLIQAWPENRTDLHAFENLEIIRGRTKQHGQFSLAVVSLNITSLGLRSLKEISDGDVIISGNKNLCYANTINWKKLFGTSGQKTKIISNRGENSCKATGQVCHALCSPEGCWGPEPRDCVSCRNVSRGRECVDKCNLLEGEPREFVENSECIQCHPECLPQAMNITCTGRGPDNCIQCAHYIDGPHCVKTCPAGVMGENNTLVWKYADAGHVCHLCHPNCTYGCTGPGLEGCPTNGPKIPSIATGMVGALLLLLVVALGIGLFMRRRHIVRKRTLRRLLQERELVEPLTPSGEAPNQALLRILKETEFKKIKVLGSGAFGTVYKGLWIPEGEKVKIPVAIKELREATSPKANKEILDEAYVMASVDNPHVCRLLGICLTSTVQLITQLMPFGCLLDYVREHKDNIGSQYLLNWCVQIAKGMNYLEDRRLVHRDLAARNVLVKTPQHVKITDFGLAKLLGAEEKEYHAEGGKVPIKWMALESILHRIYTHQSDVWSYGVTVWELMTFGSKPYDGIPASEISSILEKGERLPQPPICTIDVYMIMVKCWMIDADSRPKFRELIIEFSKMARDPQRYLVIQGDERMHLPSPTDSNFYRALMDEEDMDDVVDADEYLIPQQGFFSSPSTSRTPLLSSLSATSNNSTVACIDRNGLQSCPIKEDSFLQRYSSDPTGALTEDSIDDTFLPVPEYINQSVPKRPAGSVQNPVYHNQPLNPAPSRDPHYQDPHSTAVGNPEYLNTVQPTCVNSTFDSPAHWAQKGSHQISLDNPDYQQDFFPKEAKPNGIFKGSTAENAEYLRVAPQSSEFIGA

| Compound | DC50 [1] | DC50 [2] | DC50 [3] | GI50 [4] | GI50 [5] | GI50 [6] |
| --- | --- | --- | --- | --- | --- | --- |
| CCc1cc(Nc2ncc(Br)c(Nc3ccc4nccnc4c3NS(C)(=O)=O)n2)c(OC)cc1N1CCC(N2CC3(CCN(c4ccc5c(c4)CN(C4CCC(=O)NC4=O)C5=O)CC3)C2)CC1 (stereo not drawn) [Compound 57, N-(6-((5-bromo-2-((4-(4-(7-(2-(2,6-dioxopiperidin-3-yl)-1~oxoisoindolin-5-yl)-2,7-diazaspiro[3.5]nonan-2-yl)piperidin-1-yl)-5-ethyl-2-methoxyphenyl)amino)pyrimidin-4-yl)amino)quinoxalin-5-yl)methanesulfonamide] | > 1000 nM | 4.73 nM | 44.5 nM | 360 nM | 5.89 nM | 51.5 nM |
| CCc1cc(Nc2ncc(Br)c(Nc3ccc4nccnc4c3NS(C)(=O)=O)n2)c(OC)cc1N1CCC(N2CCN(CCC3CCN(c4cc(F)c(C5CCC(=O)NC5=O)c(F)c4)CC3)CC2)CC1 (stereo not drawn) [Compound 90, N-(6-((5-bromo-2-((4-(4-(4-(2-(1-(4-(2,6-dioxopiperidin-3-yl)-3,5-difluorophenyl)piperidin-4-yl)ethyl)piperazin-1-yl)piperidin-1-yl)-5-ethyl-2-methoxyphenyl)amino)pyrimidin-4-yl)amino)quinoxalin-5-yl)methanesulfonamide] |  | 38.6 nM | 135 nM | > 1000 nM | 19.1 nM | 89.4 nM |
| CCc1cc(Nc2ncc(Br)c(Nc3ccc4nccnc4c3NS(C)(=O)=O)n2)c(OC)cc1N1CCC(N2CCC(CN3CCN(c4ccc5c(c4)CN([C@H]4CCC(=O)NC4=O)C5=O)CC3)CC2)CC1 [Compound 35, (S)-N-(6-((5-bromo-2-((4-(4-((4-(2-(2,6-dioxopiperidin-3-yl)-1-oxoisoindolin-5-yl)piperazin-1-yl)methyl) [1,4′-bipiperidin]-1′-yl)-5-ethyl-2-methoxyphenyl)amino)pyrimidin-4-yl)amino)quinoxalin-5-yl)methanesulfonamide] |  | 66 nM | 86.5 nM | > 1000 nM | 13.7 nM | 126 nM |
| CCc1cc(Nc2ncc(Br)c(Nc3ccc4nccnc4c3NS(C)(=O)=O)n2)c(OC)cc1N1CCN(CC2(CN3CCN(c4ccc5c(c4)CN([C@H]4CCC(=O)NC4=O)C5=O)CC3)CC2)CC1 [Compound 44, (S)-N-(6-((5-bromo-2-((4-(4-((1-((4-(2-(2,6-dioxopiperidin-3-yl)-1-oxoisoindolin-5-yl)piperazin-1-yl)methyl)cyclopropyl)methyl)piperazin-1-yl)-5-ethyl-2-methoxyphenyl)amino)pyrimidin-4-yl)amino)quinoxalin-5-yl)methanesulfonamide] |  | 4.11 nM | > 1000 nM | > 1000 nM | 18.4 nM | 527 nM |
| COc1cc(N2CCC(N3CCN(CC4CCN(c5ccc6c(c5)CN(C5CCC(=O)NC5=O)C6=O)CC4)CC3)CC2)c(-c2cnn(C)c2)cc1Nc1ncc(Br)c(Nc2ccc3nccnc3c2NS(C)(=O)=O)n1 (stereo not drawn) [Compound 32, N-(6-((5-bromo-2-((4-(4-(4-((1-(2-(2,6-dioxopiperidin-3-yl)-1-oxoisoindolin-5-yl)piperidin-4-yl)methyl)piperazin-1-yl)piperidin-1-yl)-2-methoxy-5-(1-methyl-1H-pyrazol-4-yl)phenyl)amino)pyrimidin-4-yl)amino)quinoxalin-5-yl)methanesulfonamide] |  | 3.1 nM | 26 nM | 214 nM | 10.9 nM | 35.6 nM |
| CCc1cc(Nc2ncc(Br)c(Nc3ccc4nccnc4c3NS(C)(=O)=O)n2)c(OC)cc1N1CCC(N2CCC(N3CCN(c4ccc5c(c4)CN([C@H]4CCC(=O)NC4=O)C5=O)CC3)CC2)CC1 [Compound 36, (S)-N-(6-((5-bromo-2-((4-(4-(4-(2-(2,6-dioxopiperidin-3-yl)-1-oxoisoindolin-5-yl)piperazin-1-yl)-[1,4′-bipiperidin]-1′-yl)-5-ethyl-2-methoxyphenyl)amino)pyrimidin-4-yl)amino)quinoxalin-5-yl)methanesulfonamide] |  | 1.27 nM | 102 nM | > 1000 nM | 9.12 nM | 77.6 nM |
| CCc1cc(Nc2ncc(Br)c(Nc3ccc4nccnc4c3NS(C)(=O)=O)n2)c(OC)cc1N1CCC(N2CCN(C3CCC4(CC3)CN(c3ccc5c(c3)CN(C3CCC(=O)NC3=O)C5=O)C4)CC2)CC1 (stereo not drawn) [Compound 50, N-(6-((5-bromo-2-((4-(4-(4-(2-(2-(2,6-dioxopiperidin-3-yl)-1-oxoisoindolin-5-yl)-2-azaspiro[3.5]nonan-7-yl)piperazin-1-yl)piperidin-1-yl)-5-ethyl-2-methoxyphenyl)amino)pyrimidin-4-yl)amino)quinoxalin-5-yl)methanesulfonamide] |  | 38.5 nM | 95.2 nM | > 1000 nM | 13 nM | 106 nM |
| CCc1cc(Nc2ncc(Br)c(Nc3ccc4nccnc4c3NS(C)(=O)=O)n2)c(OC)cc1N1CCC(CN2CCC3(CC2)CN(c2ccc4c(c2)CN(C2CCC(=O)NC2=O)C4=O)C3)CC1 (stereo not drawn) [Compound 56, N-(6-((5-bromo-2-((4-(4-((2-(2-(2,6-dioxopiperidin-3-yl)-1~oxoisoindolin-5-yl)-2,7-diazaspiro[3.5]nonan-7-yl)methyl)piperidin-1-yl)-5-ethyl-2-methoxyphenyl)amino)pyrimidin-4-yl)amino)quinoxalin-5-yl)methanesulfonamide] |  | 9.32 nM | 18 nM | > 1000 nM | 6.08 nM | 37.2 nM |
| CCc1cc(Nc2ncc(Br)c(Nc3ccc4nccnc4c3NS(C)(=O)=O)n2)c(OC)cc1N1CCC(CN2CCC3(CC2)CCN(c2ccc4c(c2)CN(C2CCC(=O)NC2=O)C4=O)CC3)CC1 (stereo not drawn) [Compound 54, N-(6-((5-bromo-2-((4-(4-((9-(2-(2,6-dioxopiperidin-3-yl)-1-oxoisoindolin-5-yl)-3,9-diazaspiro[5.5]undecan-3-yl)methyl)piperidin-1-yl)-5-ethyl-2-methoxyphenyl)amino)pyrimidin-4-yl)amino)quinoxalin-5-yl)methanesulfonamide] |  | 13.3 nM | 33.5 nM | > 1000 nM | 4.77 nM | 31 nM |
| CCc1cc(Nc2ncc(Br)c(Nc3ccc4nccnc4c3NS(C)(=O)=O)n2)c(OC)cc1N1CCC2(CC1)CN(CC1CCN(c3ccc4c(c3)CN(C3CCC(=O)NC3=O)C4=O)CC1)C2 (stereo not drawn) [Compound 40, N-(6-((5-bromo-2-((4-(2-((1-(2-(2,6-dioxopiperidin-3-yl)-1-oxoisoindolin-5-yl)piperidin-4-yl)methyl)-2,7-diazaspiro[3.5]nonan-7-yl)-5-ethyl-2-methoxyphenyl)amino)pyrimidin-4-yl)amino)quinoxalin-5-yl)methanesulfonamide] |  | 20.8 nM | 93.8 nM | 399 nM | 7.99 nM | 60.2 nM |
